The results in this text go back to patent US10011863B2, “Methods for detecting enhanced NMDA receptor function and uses thereof” (INOVA HEALTH SYSTEM, priority 2016, dated 2018).

Data set [1] relates to human GRIN2B promoter (A allele of SNP rs3764030) in N2a cells. Put plainly: dual-luciferase reporter gene assay, GRIN2B promoter A allele plasmid. It is filed as cell-based, murine. The method, then:
(§1) FIG. 3 depicts a concentration dependent response of human GRIN2B promoter in N2a cells carrying either the A or G alleles of SNP rs3764030 to NMDA. Luciferase reporter gene plasmids were constructed in pGL 4.10 (to produce Firefly luciferase, Promega, US). Luciferase reporter plasmids and the pGL4.75 plasmid (to produce Renilla luciferase as a reference) were co-transfected into retinoic acid differentiated N2a cells and assayed for (Methods). After 24 hours of transfection, the cells were incubated for six hours with 0, 30, 50, 70 or 90 μM NMDA for transcription factors binding and then replaced with complete media (with 10% FBS) and cultured for an additional 40-44 hrs. Data are presented as means±SE.
(§2) Molecular and cellular characterization of a functional GRIN2B SNP: Luciferase vector construction. […]
(§3) Cell Culture, Transfection, and Luciferase assay. […] The luciferase activities were then measured in Synergy 4 plate reader (Biotek, US).
(§4) Murine Neuro-2a neuroblastoma cells were maintained in RPMI medium 1640 with 10% Fetal Bovine Serum (complete medium) at 37° C. in 5% CO2. […] The luciferase activities were then measured in Synergy 4 plate reader (Biotek US).

The test system of data set [2] is human GRIN2B promoter (G allele of SNP rs3764030) in N2a cells. Description: dual-luciferase reporter gene assay, GRIN2B promoter G allele plasmid. It is filed as cell-based, murine. Particulars: N2A cells transfected with G allele luciferase reporter plasmid; increasing concentrations of NMDA. As for the experimental part:
as §1, §2, §3, §4

The target of data set [3] is T1, recombinant human Elk-1 protein (Homo sapiens, UniProt P19419).
T1 construct: purchased Sigma Aldrich
T1 sequence (P19419 1-428): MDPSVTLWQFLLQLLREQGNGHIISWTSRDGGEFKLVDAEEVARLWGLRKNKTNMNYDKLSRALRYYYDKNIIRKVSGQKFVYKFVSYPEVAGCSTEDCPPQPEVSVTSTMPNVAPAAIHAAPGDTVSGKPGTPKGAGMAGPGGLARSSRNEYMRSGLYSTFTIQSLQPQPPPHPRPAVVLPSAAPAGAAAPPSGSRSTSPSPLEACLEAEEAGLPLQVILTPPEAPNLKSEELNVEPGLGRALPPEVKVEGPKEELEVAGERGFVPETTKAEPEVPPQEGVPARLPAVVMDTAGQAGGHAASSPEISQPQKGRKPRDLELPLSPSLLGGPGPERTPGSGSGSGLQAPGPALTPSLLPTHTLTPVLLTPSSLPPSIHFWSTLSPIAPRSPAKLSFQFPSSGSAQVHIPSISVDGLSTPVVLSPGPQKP
Put plainly: Electrophoretic Mobility Shift Assay (EMSA). To be noted: 1 μg recombinant human Elk-1; gel stained for DNA (SYBR Green) and protein (SYPRO Ruby). The class given is binding. As for the experimental part:
FIG. 2 depicts binding of recombinant Elk-1 protein (an ETS transcription factor) to double stranded DNAs containing the single nucleotide polymorphism (SNP) rs3764030 variant A allele from the human GRIN2B gene promoter. Double-stranded DNA targets (Methods) were sequentially incubated with 1 μg recombinant human Elk-1 protein in EMSA buffer, then incubated with the Elk-1 antibody 20 minutes. […] Samples were electrophoresed through 6% polyacrylamide gels in HEPES buffer pH 6.3, without polydldC. The gel was then stained with the SYBR Green to visualize DNA and SYPRO Ruby for protein bound to DNA. The stained gel was scanned using G:BOX (Syngene, US) for imaging. Elk-1 bound to DNA is indicated by the arrow.
Electrophoretic Mobility Shift Assay (EMSA). To monitor the interaction between the ETS domain transcription factor, Elk-1, and its DNA recognition sequence in vitro, we used EMSA. The DNA sequences for positive control containing a GGAT consensus core binding sequence were: Forward: 5′ […] 3′ (SEQ ID NO:2) and Reverse: 5′ […] 3′ (SEQ ID NO:3). The negative control region was: Forward: 5′ […] 3′ (SEQ ID NO:4) and Reverse: 5′ […] 3′ (SEQ ID NO:5), as described in Wei et al (2010). The forward and reverse sequence for GRIN2B A allele which created the ETS binding site were: 5′ […] 3′ (SEQ ID NO:6)and 5′ […] 3′ (SEQ ID NO:7), repectively. […]

Regarding `CN[C@H](CC(=O)O)C(=O)O` [NMDA, N-methyl-D-aspartate], the “dose-dependent increase in luciferase activity” value in data set [1] (N2A cells transfected with A allele reporter, increasing concentrations of NMDA (0, 30, 50, 70, 90 μM)) is on record as 2.4-11.5 fold. Besides, the “reporter gene activity of A allele relative to cells carrying the G allele reporter” value in data set [1] (NMDA receptor activation, dose-dependent, A allele vs G allele) is reported as 2 fold. Further, the “luciferase reporter response to NMDA treatment” value in data set [2] is given as “did not respond”.

Turning to “A allele DNA probe: annealed dsDNA of GRIN2B A allele, 5′ CATCTCCGGGGAACACGCGAA 3′ (SEQ ID NO:6) and SEQ ID NO:7, creating ETS binding site (chain 2 TTCGCGTGTTCCCCGGAGATG; listed as DNA, chemistry not given here)”, the “binding of recombinant Elk-1 to DNA probe” value in data set [3] is given as “bound recombinant Elk-1 to a greater extent than the G allele DNA probe”.
